This passage reports Bliss excess results from the supplement of paper PMC11061612.

Common to all, as to test: Bliss excess, mean over the matrix (fraction); higher = more synergy
Experiment [1] relates to COLO-668 (Small Cell Lung Carcinoma). The gist of the method:
(§1)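 Cell lines in DMEM/F12 or RPMI with 10% FBS were plated in 1536-well plates, held 24 hours at 37°C, 5% CO2, then given two-drug dose matrices for 72 hours (DMSO typically 0.2%). Viability was read by CellTiter-Glo 2.0 luminescence and scaled as inhibition from 0 (vehicle wells) to 1 (blank wells). Combination Emax is the second-highest inhibition in the matrix; Bliss excess is observed combination effect minus expected EA + EB − EA·EB, EA and EB being single-agent effects.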

The test system of experiment [2] is Hey (Ovarian Carcinoma). In a few lines: as §1
The test system of experiment [3] is G-401 (Other Solid Carcinomas). The gist of the method:
as §1

Experiment [4] relates to NCI-H2122 (Lung Adenocarcinoma). The gist of the method:
as §1

The subject of experiment [5] is HAL-01 (B-Lymphoblastic Leukemia). In a few lines:
as §1

In experiment [6] the test system is OACM5-1 (Esophageal Adenocarcinoma). The gist of the method:
as §1

Experiment [7] concerns LC-1-sq (Squamous Cell Lung Carcinoma). The gist of the method:
as §1

Experiment [8] deals with ALL-SIL (T-Lymphoblastic Leukemia). In a few lines: as §1
For experiment [9], the system named is KGN (Other Solid Carcinomas). In a few lines: as §1
Experiment [10] concerns KOPN-8 (B-Lymphoblastic Leukemia). In a few lines:
as §1

Experiment [11] deals with SKN (Other Solid Carcinomas). The gist of the method: as §1
Experiment [12] has as its system A4-Fuk (B-Lymphoblastic Leukemia). The gist of the method: as §1
The subject of experiment [13] is SW872 (Other Solid Carcinomas). The gist of the method:
as §1

The test system of experiment [14] is SNU-387 (Hepatocellular Carcinoma). The gist of the method:
as §1

Experiment [15] deals with NCI-H650 (Lung Adenocarcinoma). In a few lines: as §1
Experiment [16] concerns HCC2998 (Colorectal Carcinoma). The gist of the method: as §1
Experiment [17] relates to MOG-G-UVW (Low Grade Glioma). The gist of the method: as §1
The test system of experiment [18] is CADO-ES1 (Ewing's Sarcoma). In a few lines:
as §1

The test system of experiment [19] is NCI-H1838 (Lung Adenocarcinoma). In a few lines: as §1

As to `COc1cccc2c1C(=O)c1c(O)c3c(c(O)c1C2=O)C[C@@](O)(C(=O)CO)C[C@@H]3O[C@H]1C[C@H](N)[C@H](O)[C@H](C)O1` [Doxorubicin] + Cc1cc2ncnn2cc1Nc1ncc2c(n1)n(C1CCOCC1)c(=O)n2C [AZD7648] (first compound max 1 µM, 7x7, partner max 10 µM), the Bliss excess in experiment [1] was determined as 0.0633; in experiment [2], 0.13; in experiment [3] it was 0.0259; in [4] it was 0.0669; in experiment [5] it was 0.0877; in experiment [6], 0.0577. Further, the Bliss excess in experiment [7] is 0.117; in experiment [8], 0.0857; in experiment [9], 0.0694; in [10] it was 0.119; in [11], 0.0231; in experiment [12] it was -0.018. For the same molecule, the Bliss excess in experiment [13] was determined as 0.0299; in experiment [14] it was 0.005; in experiment [15] it was 0.0195; in experiment [16] it was 0.0344; in experiment [17] it was 0.101; in experiment [18], 0.111. The Bliss excess in experiment [19] is -0.0577.

In the case of `COc1cccc(OCCCN)c1-c1cc(Nc2cnc(C#N)cn2)n[nH]1` [Prexasertib] + C=CCn1c(=O)c2cnc(Nc3ccc(N4CCN(C)CC4)cc3)nc2n1-c1cccc(C(C)(C)O)n1 [AZD1775] (first compound max 1 µM, partner max 1 µM), the Bliss excess in experiment [1] turned out to be 0.0952; in experiment [2] it was 0.11; in experiment [3] it was 0.0612; in experiment [4], 0.0341; in [5], 0.0697; in experiment [6] it was 0.105. Moreover, the Bliss excess in experiment [7] was 0.0581; in [8], 0.0648; in experiment [9], 0.0615; in [10], 0.0438; in experiment [11] it was 0.0515; in experiment [12], -0.0205. Also, the Bliss excess turned out to be 0.144 in experiment [13]; 0.081 in experiment [14]; 0.0382 in [15]; 0.0716 in experiment [16]; 0.0656 in [17]; 0.0737 in experiment [18]. Besides, the Bliss excess in experiment [19] was -0.131.

Consider `COc1cccc(OCCCN)c1-c1cc(Nc2cnc(C#N)cn2)n[nH]1` [Prexasertib] + CCc1c2c(nc3ccc(O)cc13)-c1cc3c(c(=O)n1C2)COC(=O)[C@]3(O)CC [SN-38] (first compound max 1 µM, 7x7, partner max 0.3 µM), for which the Bliss excess was -0.0788 in experiment [1]; -0.0717 in [2]; -0.0398 in experiment [3]; -0.0405 in [4]; -0.0262 in [5]; -0.0675 in experiment [6]. The Bliss excess in [7] was 0.0039; in [8], -0.0093; in experiment [9], -0.116; in [10], -0.0147; in [11], 0.0807; in experiment [12], -0.0592. The Bliss excess in [13] is -0.015; in [14] it was 0.0549; in [15] it was -0.0227; in [16] it was 0.0876; in [17] it was 0.0045; in [18], 0.0033. Also, the Bliss excess in [19] is -0.0001.

Take `COc1cccc(OCCCN)c1-c1cc(Nc2cnc(C#N)cn2)n[nH]1` [Prexasertib] + CN(C)CCCOc1ccc(-c2ccc3ncc4c(c3c2)n(C2CCOCC2)c(=O)n4C)cn1 [AZD0156] (first compound max 1 µM, 7x7, partner max 1 µM): the Bliss excess was -0.0161 in experiment [1]; -0.0098 in experiment [2]; -0.0265 in [3]; -0.0115 in [4]; -0.0002 in experiment [5]; -0.0235 in experiment [6]. Also, the Bliss excess in [7] is -0.0038; in experiment [8], -0.0838; in [9], -0.0432; in experiment [10] it was 0.0171; in experiment [11], 0.0519; in experiment [12], -0.0593. Besides, the Bliss excess is -0.0035 in [13]; -0.0232 in [14]; -0.008 in experiment [15]; -0.0121 in experiment [16]; -0.0204 in experiment [17]; 0.0008 in experiment [18]. In [19], the Bliss excess was -0.0285.

Consider `COc1cccc(OCCCN)c1-c1cc(Nc2cnc(C#N)cn2)n[nH]1` [Prexasertib] + C[C@@H]1COCCN1C2=NC(=NC(=C2)C3(CC3)[S@](=N)(=O)C)C4=C5C=CNC5=NC=C4 [AZD6738] (first compound max 1 µM, 7x7, partner max 10 µM), for which the Bliss excess was 0.0269 in [1]; 0.007 in experiment [2]; 0.0399 in experiment [3]; -0.0262 in experiment [4]; -0.022 in [5]; -0.0153 in experiment [6]. Moreover, the Bliss excess was -0.0361 in experiment [7]; -0.0175 in [8]; -0.0399 in [9]; -0.0539 in [10]; -0.02 in [11]; -0.0602 in [12]. In addition, the Bliss excess in experiment [13] was 0.01; in experiment [14], 0.0035; in experiment [15] it was -0.0278; in experiment [16], 0.0211; in experiment [17], 0.0317; in experiment [18], -0.0348. For the same molecule, the Bliss excess in experiment [19] was -0.174.

As to `COc1cccc(OCCCN)c1-c1cc(Nc2cnc(C#N)cn2)n[nH]1` [Prexasertib] + Cc1cc2ncnn2cc1Nc1ncc2c(n1)n(C1CCOCC1)c(=O)n2C [AZD7648] (first compound max 1 µM, 7x7, partner max 10 µM), the Bliss excess in experiment [1] is -0.0459; in [2], -0.0301; in experiment [3], -0.0221; in [4] it was -0.0289; in experiment [5] it was -0.0257; in experiment [6], -0.026. For the same molecule, the Bliss excess in [7] is 0.0099; in experiment [8], -0.0258; in experiment [9], -0.0033; in experiment [10], 0.0298; in [11] it was -0.0238; in experiment [12], -0.0989. The Bliss excess is 0.0191 in experiment [13]; -0.0434 in experiment [14]; -0.0389 in experiment [15]; -0.0053 in experiment [16]; -0.0264 in experiment [17]; -0.0261 in experiment [18]. Further, the Bliss excess in [19] is -0.0126.

Take `CCc1c2c(nc3ccc(O)cc13)-c1cc3c(c(=O)n1C2)COC(=O)[C@]3(O)CC` [SN-38] + O=C(c1cc(Cc2n[nH]c(=O)c3ccccc23)ccc1F)N1CCN(C(=O)C2CC2)CC1 [Olaparib] (first compound max 0.3 µM, 7x7, partner max 10 µM): the Bliss excess in experiment [1] was found to be 0.0738; in experiment [2], 0.0559; in experiment [5] it was 0.0568; in [6], 0.0474; in experiment [7] it was 0.0716; in experiment [8], 0.0795. Besides, the Bliss excess is 0.0691 in [9]; 0.0271 in experiment [10]; 0.0246 in [11]; 0.0164 in experiment [12]; 0.0634 in experiment [13]; -0.0372 in experiment [14]. In addition, the Bliss excess in experiment [17] stood at 0.036; in experiment [18], 0.0253.
